The test deals with IL-1-induced proteoglycan degradation in bovine nasal cartilage. Briefly: Bovine Nasal Cartilage (BNC) assay: inhibition of IL-1-induced proteoglycan degradation (chondroitin sulfate release, 1,9-DMB). The format is cell-based. The conditions noted are these: Bos taurus, bovine nasal cartilage explants, IL-1β (500 U); for IC50: 48 h with compound + 24 h fresh media, dose responses 10, 1, 0.1 μM. The text has this:
The BNC (bovine nasal cartilage) assay provides a model for evaluating chrondroprotective compounds that block cartilage degradation through inhibition of enzyme activity or by altering the gene expression of the matrix metalloproteinase stromelysin.
Bovine nasal cartilage is obtained from a local slaughter house (Milan, Mich.); cell culture reagents from Gibco (Grand Island, N.Y.); human recombinant Interleukin-1β (IL-1β) from Boehringer Mannheim (Indianapolis, Ind.); DMB from Polysciences (Warrington, Pa.); Falcon 24 well flat-bottom tissue culture plates from Becton Dickinson (Lincoln Park, N.J.); disposable 20-mL scintillation vials from Kimble Glass (Vinland, N.J.); Papain from Sigma (P-3125, St. Louis, Miss.); high purity dimethyl sulfoxide from Burdic & Jackson (081-1, Distributed by Baxter Healthcare, McGraw Park, Ill.); Sarstedt vials for radioimmune assays (Sarstedt, Newton, N.C.); Sarstedt 96-vial aluminum racks (Sarstedt, Newton, N. C.); Cetus Pro/Pette (Perkin Elmer, Norwalk, Conn.).
The assay is accomplished in two phases. The cartilage plugs are first incubated with IL-1 in the presence of compounds. The amount of proteoglycan released is then quantified by measuring chondroitin sulfate present in the media using the 1,9-Dimethylmethylene Blue Assay.
Cartilage Culture. Bovine nasal septum is dissected free of surrounding tissue and wiped with 70% alcohol. A sterile cork borer is used to remove 5-mm cartilage disks of 2 to 3 mm thickness. Explants are equilibrated for 96 hours in F-12 supplemented with 10% fetal calf serum (FCS) and antibiotics at 37° C. in a humidified atmosphere of 95% air and 5% CO2. Explants are then rinsed with 1 mL F-12 Nutrient Mixture (without phenol red) in order to remove traces of FCS. Each treatment group is done in triplicate allowing: controls (500 μL F-12 medium + 110 μL PBS with 0.1% BSA + 7 μL DMSO); IL-1β (500 μL F-12 medium without phenol red + 100 μL IL-1β (500 U) + 7 μL DMSO + 10 μL PBS with 0.1 % BSA); and dose responses (10, 1, and 0.1 μM) (F-12 medium without phenol red + 100 μL IL-1β (500 U) + 7 μL compound dissolved in DMSO + 10 μL PBS with 0.1% BSA), to be tested per each 24-well plate. The cartilage plugs are incubated in the presence of conditioned media (IL-1β + compound) for 48 hours. […]
Quantitation of Cartilage Degradation. The ability of a compound to inhibit proteoglycan released from the cartilage plugs is quantified by measuring chondroitin sulfate. […] This color change is measured using a Titertek Multiscan MCC 340 plate reader at 540 nm. […] It is necessary to dilute (1:5, 1:10) the medium before a […] is performed by adding 10 μL of collected media to 290 μL DMF (16 mg dye/1 L of 0.1M formate buffer, pH 3.5, containing 5 mL ethanol) and reading […]. […]

As to `O=C1OCC/C1=C\c1ccccc1Nc1ccccc1` [Example 4, (E)-4,5-Dihydro-3-[[2-(phenylamino)phenyl]methylene]2(3H) -furanone], for the setting “@ 0.10 μM, read-out: Percent Inhibition @ μM”, the inhibition at 0.1 µM was 70%.
With `Cc1ccc(Cl)c(Nc2ccccc2/C=C2\CCOC2=O)c1Cl` [Example 1, (E)-3-[[2-[(2,6-Dichloro-3-methylphenyl)amino]phenyl]methylene]4,5-dihydro-2(3H)-furanone], the half-inhibitory concentration (IC50) is 390 nM.
Same read-out and setting: then `O=C1OCC/C1=C\c1ccccc1Nc1cccc(C(F)(F)F)c1` [Example 3, (E)-4,5-Dihydro-3-[[2-[[3-(trifluoromethyl)phenyl]-amino]phenyl]methylene]-2(3H)-furanone], with 520 nM.
As for `Cc1ccc(Cl)c(Nc2ccccc2/C=C2\CCOC2=S)c1Cl` [Example 2, (E)-3-[[2-[(2,6-Dichloro-3-methylphenyl)amino]phenyl]methylene]-4,5-dihydro-2(3H) -furanthione], the inhibition at 10 µM (@ 10.0 μM, read-out: Percent Inhibition @ μM) was above 50%.

The term inhibition denotes the share of the control response that was lost under treatment. The term IC50 denotes the concentration at which inhibition is half-maximal.

Values taken from patent US5358964A, “Benzylidene-lactone and their thiocarbonyl analogs as inhibitors of proteoglycan degradation” (Warner-Lambert Company, priority 1993, dated 1994).
